Reference: ChEMBL document CHEMBL1145687, “Cochliobolic acid, a novel metabolite produced by Cochliobolus lunatus, inhibits binding of TGF-alpha to the EGF receptor in a SPA assay” (J Nat Prod, 1997)

Target: Epidermal growth factor receptor (Homo sapiens, UniProt P00533)
Assay: Displacement of [125I]-TGFalpha from human EGFR in human A431 cell membrane by SPA
Type: cell membranes, A-431

Chain of Epidermal growth factor receptor (P00533 whole entry): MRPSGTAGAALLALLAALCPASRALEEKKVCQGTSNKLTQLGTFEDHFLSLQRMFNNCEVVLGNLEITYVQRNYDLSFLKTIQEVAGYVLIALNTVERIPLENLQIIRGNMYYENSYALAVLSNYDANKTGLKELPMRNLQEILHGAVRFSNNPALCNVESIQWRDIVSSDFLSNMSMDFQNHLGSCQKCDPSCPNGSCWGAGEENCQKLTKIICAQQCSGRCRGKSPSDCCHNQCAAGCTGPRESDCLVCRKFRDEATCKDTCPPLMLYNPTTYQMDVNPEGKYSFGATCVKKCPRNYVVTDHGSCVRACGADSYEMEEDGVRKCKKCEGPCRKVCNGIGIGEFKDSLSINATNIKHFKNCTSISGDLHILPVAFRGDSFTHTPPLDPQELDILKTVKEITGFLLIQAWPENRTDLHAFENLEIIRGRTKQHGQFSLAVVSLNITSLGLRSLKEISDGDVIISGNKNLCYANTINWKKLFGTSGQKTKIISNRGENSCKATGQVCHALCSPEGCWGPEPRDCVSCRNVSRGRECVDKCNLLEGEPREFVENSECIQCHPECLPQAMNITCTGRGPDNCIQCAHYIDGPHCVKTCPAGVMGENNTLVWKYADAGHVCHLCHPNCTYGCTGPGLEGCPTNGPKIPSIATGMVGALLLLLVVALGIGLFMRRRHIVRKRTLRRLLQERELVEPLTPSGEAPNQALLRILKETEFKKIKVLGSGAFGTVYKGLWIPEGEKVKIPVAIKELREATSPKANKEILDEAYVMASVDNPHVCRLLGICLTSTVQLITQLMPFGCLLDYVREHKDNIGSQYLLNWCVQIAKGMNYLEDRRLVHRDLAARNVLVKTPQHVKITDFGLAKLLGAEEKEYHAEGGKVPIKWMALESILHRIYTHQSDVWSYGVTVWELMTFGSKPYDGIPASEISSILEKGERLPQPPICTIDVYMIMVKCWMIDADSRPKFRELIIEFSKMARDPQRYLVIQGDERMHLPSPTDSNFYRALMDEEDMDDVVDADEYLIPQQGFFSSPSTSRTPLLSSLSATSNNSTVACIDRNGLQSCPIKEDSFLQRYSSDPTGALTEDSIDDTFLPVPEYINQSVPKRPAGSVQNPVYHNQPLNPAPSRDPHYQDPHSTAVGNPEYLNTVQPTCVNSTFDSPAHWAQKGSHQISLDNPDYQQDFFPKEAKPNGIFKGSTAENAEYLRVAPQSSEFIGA

For `CCC(C)/C=C/C(=O)C(=O)/C=C/C=C/C=C/C=C/C=C/C=C/[C@@H]1C[C@@H](O)[C@H](C(=O)O)O1` (stereo partly specified) [COCHLIOBOLIC ACID], the IC50 was 1600 nM.
